Paper PMC11785093 (bioRxiv, 2025)
Where two headings read alike, the source gives them in different places.

Columns and labels:
DDB1 [1] = target: T1, DDB1 (Homo sapiens, UniProt Q16531); test: SPR; type: binding; details: read-out: estimated KD; biotinylated protein immobilised; pH […] °C, […] DMSO
DDB1 [2] = target: T1, DDB1; test: SPR; type: binding; details: biotinylated protein immobilised; pH […] °C, […] DMSO; site at W1047, Y1114

T1 sequence (Q16531 2-1140): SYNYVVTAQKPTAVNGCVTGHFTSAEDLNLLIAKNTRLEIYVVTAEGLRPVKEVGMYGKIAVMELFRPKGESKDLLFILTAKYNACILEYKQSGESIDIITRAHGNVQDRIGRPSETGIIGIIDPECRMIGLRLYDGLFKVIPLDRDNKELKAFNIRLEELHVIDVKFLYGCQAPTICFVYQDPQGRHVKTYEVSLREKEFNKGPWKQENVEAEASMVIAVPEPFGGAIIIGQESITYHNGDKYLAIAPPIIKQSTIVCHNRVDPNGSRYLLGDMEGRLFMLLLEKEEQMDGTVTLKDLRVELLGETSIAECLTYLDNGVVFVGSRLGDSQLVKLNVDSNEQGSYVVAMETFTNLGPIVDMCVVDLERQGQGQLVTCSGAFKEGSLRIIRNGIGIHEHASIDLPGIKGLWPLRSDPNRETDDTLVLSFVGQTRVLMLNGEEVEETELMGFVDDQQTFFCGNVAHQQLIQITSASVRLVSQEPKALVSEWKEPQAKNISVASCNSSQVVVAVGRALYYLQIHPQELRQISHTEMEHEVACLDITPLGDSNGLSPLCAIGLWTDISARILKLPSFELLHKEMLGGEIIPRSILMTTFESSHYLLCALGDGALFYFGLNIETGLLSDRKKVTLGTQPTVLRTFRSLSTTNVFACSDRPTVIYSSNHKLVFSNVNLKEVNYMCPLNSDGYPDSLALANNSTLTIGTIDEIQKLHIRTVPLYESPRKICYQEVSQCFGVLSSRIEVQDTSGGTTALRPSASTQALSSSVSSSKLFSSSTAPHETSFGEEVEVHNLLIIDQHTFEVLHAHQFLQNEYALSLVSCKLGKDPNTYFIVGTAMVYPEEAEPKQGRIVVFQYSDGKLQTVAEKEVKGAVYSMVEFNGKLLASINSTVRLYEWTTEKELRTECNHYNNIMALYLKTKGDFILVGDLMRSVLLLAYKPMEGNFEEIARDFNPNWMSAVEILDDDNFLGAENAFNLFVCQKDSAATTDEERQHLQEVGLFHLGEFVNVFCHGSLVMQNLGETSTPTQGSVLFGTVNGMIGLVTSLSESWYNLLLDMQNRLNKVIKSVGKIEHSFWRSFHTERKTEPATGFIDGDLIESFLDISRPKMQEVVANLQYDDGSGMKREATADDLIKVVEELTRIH

Kd (DDB1 [1]) | Kd (DDB1 [2]) | SMILES
> 73000 nM |  | CCOc1cccc([C@H]2CC(=O)Nc3c2c(C)nn3-c2ccc3nncn3n2)c1 [(R)-XS381952]
 | 2000 nM | CCOc1cccc([C@@H]2CC(=O)Nc3c2c(C)nn3-c2ccc3nncn3n2)c1 [(S)-XS381952]
